This test is described as follows: HCV replicon assay (luciferase reporter, ET cell line). Format: cell-based. To be noted: Hepatitis C virus, HCV replicon luciferase activity in ET cells. In outline: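 ET cells carry a stable luciferase-ubiquitin-neo/NS3-5B subgenomic HCV replicon with adaptive mutations. Compounds (0.1 nM to […], 0.5% DMSO) were added 24 h after plating, and luciferase was read 48-72 h later. EC50 came from 10-point 2-fold dilutions fitted to a Hill equation; TC50 was measured in parallel by WST-1.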
Background: Replicon systems follow genome replication, usually without infectious particles.

The source of these data is patent US20120121540A1 (priority 2007, published 2012).

Molecules are shown by their SMILES.

Regarding `O=C(c1nc2c(C(F)(F)F)cc(-c3ccoc3)cn2c1Cl)N1CC=C(c2ccn[nH]2)CC1` [Compound 584, (3-Chloro-6-furan-3-yl-8-trifluoromethyl-imidazo[1,2-a]pyridin-2-yl)-[4-(2H-pyrazol-3-yl)-3,6-dihydro-2H-pyridin-1-yl]methanone], at 10 µM the inhibition was 72.5%.

For the molecule `CC(=O)c1ccc(C2=CCN(C(=O)c3nc4c(C(F)(F)F)cc(-c5ccoc5)cn4c3Cl)CC2)s1` [Compound 585, 1-{5-[1-(3-Chloro-6-furan-3-yl-8-trifluoromethyl-imidazo[1,2-a]pyridine-2-carbonyl)-1,2,3,6-tetrahydro-pyridin-4-yl]-thiophen-2-yl}-ethanone], the inhibition (in general, the relative decrease from the control value, in per cent) at 10 µM stood at 93.2%.

`Cn1nccc1C1=CCN(C(=O)c2nc3c(C(F)(F)F)cc(-c4ccoc4)cn3c2Cl)CC1` [Compound 586, (3-Chloro-6-furan-3-yl-8-trifluoromethyl-imidazo[1,2-a]pyridine-2-yl)-[4-(2-methyl-2H-pyrazol-3-yl)-3,6-dihydro-2H-pyridin-1-yl]-methanone] gave an inhibition at 10 µM of 86%.

Take `O=C(c1nc2c(C(F)(F)F)cc(-c3ccoc3)cn2c1Cl)N1CC=C(c2ccnc(F)c2)CC1` [Compound 587, (3-Chloro-6-furan-3-yl-8-trifluoromethyl-imidazo[1,2-a]pyridine-2-yl)-(2′-fluoro-3,6-dihydro-2H-[4,4′]bipyridinyl-1-yl)-methanone]: the inhibition at 10 µM amounted to 76.9%.

As to `O=C(c1nc2c(C(F)(F)F)cc(-c3ccoc3)cn2c1Cl)N1C=C(c2cscn2)CCC1` [Compound 588, (3-Chloro-6-furan-3-yl-8-trifluoromethyl-imidazo[1,2-a]pyridin-2-yl)-(5-thiazol-4-yl-3,4-dihydro-2H-pyridin-1-yl)-methanone], 10 µM produced 84.5% inhibition.

As to `O=C(c1nc2c(C(F)(F)F)cc(-c3ccoc3)cn2c1Cl)N1CCC=C(c2cscn2)C1` [Compound 589, (3-Chloro-6-furan-3-yl-8-trifluoromethyl-imidazo[1,2-a]pyridin-2-yl)-(5-thiazol-4-yl-3,6-dihydro-2H-pyridin-1-yl)-methanone], testing at 10 µM gave an inhibition of 76%.

As to `O=C(c1nc2c(C(F)(F)F)cc(-c3ccoc3)cn2c1Cl)N1C=C(c2ccccc2F)CCC1` [Compound 590, (3-Chloro-6-furan-3-yl-8-trifluoromethyl-imidazo[1,2-a]pyridine-2-yl)-[5-(2-fluoro-phenyl)-3,4-dihydro-2H-pyridin-1-yl]-methanone], the inhibition at 10 µM worked out at 93.9%.

`O=C(c1nc2c(C(F)(F)F)cc(-c3ccoc3)cn2c1Cl)N1CCC=C(c2ccccc2F)C1` [Compound 591, (3-Chloro-6-furan-3-yl-8-trifluoromethyl-imidazo[1,2-a]pyridine-2-yl)-[5-(2-fluoro-phenyl)-3,6-dihydro-2H-pyridin-1-yl]-methanone] returned an inhibition at 10 µM of 96.9%.

Consider `O=C(c1nc2c(C(F)(F)F)cc(-c3cn[nH]c3)cn2c1Cl)N1CC=C(c2ncccc2F)C1` [Compound 592], for which the inhibition at 10 µM stood at 97.1%.

On to `O=C(c1nc2c(C(F)(F)F)cc(-c3ccoc3)cn2c1Cl)N1CCC(Oc2ccccc2)C1` (centres unmarked) [Compound 593, (3-Chloro-6-furan-3-yl-8-trifluoromethyl-imidazo[1,2-a]pyridin-2-yl)-(3-phenoxy-pyrrolidin-1-yl)-methanone], for which testing at 10 µM gave an inhibition of 89.5%.

Consider `O=C(c1nc2c(C(F)(F)F)cc(-c3ccoc3)cn2c1Cl)N1CC=C(c2ccccc2)CC1` [Compound 594, (3-Chloro-6-furan-3-yl-8-trifluoromethyl-imidazo[1,2-a]pyridin-2-yl)-(4-phenyl-3,6-dihydro-2H-pyridin-1-yl)-methanone], for which the inhibition at 10 µM turned out to be 88.5%.

Consider `O=C(c1nc2c(C(F)(F)F)cc(-c3ccoc3)cn2c1Cl)N1CC=C(c2ccc(F)cc2)CC1` [Compound 595, (3-Chloro-6-furan-3-yl-8-trifluoromethyl-imidazo[1,2-a]pyridin-2-yl)-[4-(4-fluoro-phenyl)-3,6-dihydro-2H-pyridin-1-yl]-methanone], for which the inhibition at 10 µM came to 77.2%.

`O=C(c1nc2c(C(F)(F)F)cc(-c3ccoc3)cn2c1Cl)N1CCN(c2ccc(F)cc2F)CC1` [Compound 596, (3-Chloro-6-furan-3-yl-8-trifluoromethyl-imidazo[1,2-a]pyridin-2-yl)-[4-(2,4-difluoro-phenyl)-piperazin-1-yl]-methanone] displayed an inhibition at 10 µM of 75.6%.

Take `O=C(c1nc2c(C(F)(F)F)cc(-c3ccoc3)cn2c1Cl)N1CCN(c2ncccn2)CC1` [Compound 597, (3-Chloro-6-furan-3-yl-8-trifluoromethyl-imidazo[1,2-a]pyridin-2-yl)-(4-pyrimidin-2-yl-piperazin-1-yl)-methanone]: the inhibition at 10 µM stood at 38.7%.

In the case of `O=C(c1nc2c(C(F)(F)F)cc(-c3ccoc3)cn2c1Cl)N1CCC(c2cccs2)CC1` [Compound 598, [3-chloro-6-(furan-3-yl)-8-(trifluoromethyl)imidazo[1,2-a]pyridin-2-yl][4-(thiophen-2-yl)piperidin-1-yl]methanone], at 10 µM the inhibition was 95.9%.

In turn, `O=C(c1nc2c(C(F)(F)F)cc(-c3ccoc3)cn2c1Cl)N1CCC(Nc2ccccc2)C1` (centres unmarked) [Compound 599, (3-Chloro-6-furan-3-yl-8-trifluoromethyl-imidazo[1,2-a]pyridin-2-yl)-(3-phenylamino-pyrrolidin-1-yl)-methanone] gave an inhibition at 10 µM of 91.1%.

Molecule `CC(=O)N(c1ccccc1)C1CCN(C(=O)c2nc3c(C(F)(F)F)cc(-c4ccoc4)cn3c2Cl)C1` (centres unmarked) [Compound 600, N-[1-(3-Chloro-6-furan-3-yl-8-trifluoromethyl-imidazo[1,2-a]pyridine-2-carbonyl)-pyrrolidin-3-yl]-N-phenyl-acetamide] came in with an inhibition at 10 µM of 76%.

For `N#CC1(c2ccccc2)CCN(C(=O)c2nc3c(C(F)(F)F)cc(-c4ccoc4)cn3c2Cl)CC1` [Compound 601, 1-(3-Chloro-6-furan-3-yl-8-trifluoromethyl-imidazo[1,2-a]pyridine-2-carbonyl)-4-phenyl-piperidine-4-carbonitrile], 10 µM produced 98.3% inhibition.

`O=C(NC(c1ccccc1)c1cccs1)c1nc2c(C(F)(F)F)cc(-c3ccoc3)cn2c1Cl` (centres unmarked) [Compound 602, 3-Chloro-6-furan-3-yl-8-trifluoromethyl-imidazo[1,2-a]pyridine-2-carboxylic Acid (phenyl-thiophen-2-yl-methyl)-amide] gave an inhibition at 10 µM of 90.5%.

Take `O=C(Cc1nc2c(C(F)(F)F)cc(-c3ccoc3)cn2c1Cl)NCc1cccs1` [Compound 603, 2-[3-Chloro-6-(furan-3-yl)-8-(trifluoromethyl)imidazo[1,2-a]pyridin-2-yl]-N-(thiophen-2-ylmethyl)acetamide]: at 10 µM the inhibition was 65.8%.

In turn, `O=C(Cc1nc2c(C(F)(F)F)cc(-c3ccoc3)cn2c1Cl)N1CCC(c2cccc(F)c2)C1` (centres unmarked) [Compound 604, 2-[3-chloro-6-(furan-3-yl)-8-(trifluoromethyl)imidazo [1,2-a]pyridin-2-yl]-1-[3-(3-fluorophenyl)pyrrolidin-1-yl]ethanone] returned an inhibition at 10 µM of 74.1%.

Take `O=C(c1nc2c(C(F)(F)F)cc(-c3ccoc3)cn2c1Cl)N1CCC(n2cnc3ccccc32)CC1` [Compound 605, (4-Benzoimidazol-1-yl-piperidin-1-yl)-(3-chloro-6-furan-3-yl-8-trifluoromethyl-imidazo[1,2-a]pyridin-2-yl)-methanone]: testing at 10 µM gave an inhibition of 3.1%.

Molecule `O=C(c1nc2c(C(F)(F)F)cc(-c3cn[nH]c3)cn2c1Cl)N1CCC(c2ccccc2F)CC1` [Compound 606, [3-Chloro-6-(1H-pyrazol-4-yl)-8-trifluoromethyl-imidaz [1,2-a]pyridin-2-yl]-[4-(2-fluoro-phenyl)-piperidin-1-yl]-methanone] registered an inhibition at 10 µM of 87.9%.

Take `N#Cc1ccccc1C1CCN(C(=O)c2nc3c(C(F)(F)F)cc(-c4cn[nH]c4)cn3c2Cl)CC1` [Compound 607, 2-{1-[3-Chloro-6-(1H-pyrazol-4-yl)-8-trifluoromethyl-imidazo[1,2-a]pyridine-2-carbonyl]-piperidin-4-yl}-benzonitrile]: testing at 10 µM gave an inhibition of 92.2%.

Molecule `O=C(c1nc2c(C(F)(F)F)cc(-c3cn[nH]c3)cn2c1Br)N1CC=C(c2ccc(F)cc2)CC1` [Compound 608, [3-Bromo-6-(1H-pyrazol-4-yl)-8-trifluoromethyl-imidazo[1,2-a]pyridin-2-yl]-[4-(4-fluoro-phenyl)-3,6-dihydro-2H-pyridin-1-yl]-methanone] registered an inhibition at 10 µM of 62.7%.

For the molecule `O=C(c1nc2c(C(F)(F)F)cc(-c3cn[nH]c3)cn2c1Br)N1CC=C(c2cscn2)CC1` [Compound 609, [3-Bromo-6-(1H-pyrazol-4-yl)-8-trifluoromethyl-imidazo[1,2-a]pyridin-2-yl]-(4-thiazol-4-yl-3,6-dihydro-2H-pyridin-1-yl)-methanone], the inhibition at 10 µM came out at 94.1%.

With `O=C(c1nc2c(C(F)(F)F)cc(-c3cn[nH]c3)cn2c1Br)N1CCN(c2nccs2)CC1` [Compound 610, [3-Bromo-6-(1H-pyrazol-4-yl)-8-trifluoromethyl-imidazo[1,2-a]pyridin-2-yl]-(4-thiazol-2-yl-piperazin-1-yl)-methanone], 10 µM produced 68.7% inhibition.

As for `O=C(c1nc2c(C(F)(F)F)cc(-c3cn[nH]c3)cn2c1Br)N1CCC(c2nccs2)CC1` [Compound 611, [3-Bromo-6-(1H-pyrazol-4-yl)-8-trifluoromethyl-imidazo[1,2-a]pyridin-2-yl]-(4-thiazol-2-yl-piperidin-1-yl)-methanone], at 10 µM the inhibition was 92.4%.

`O=C(c1cn2cc(-c3cn[nH]c3)cc(C(F)(F)F)c2n1)N1CC=C(c2nccs2)CC1` [Compound 612, [6-(1H-pyrazol-4-yl)-8-(trifluoromethyl)imidazo[1,2-a]pyridin-2-yl][4-(1,3-thiazol-2-yl)-3,6-dihydropyridin-1(2H)-yl]methanone] showed an inhibition at 10 µM of 59.3%.
